Laboratory results: article PMC4506051, “Pharmacokinetic Profiles of Active Ingredients and Its Metabolites Derived from Rikkunshito, a Ghrelin Enhancer, in Healthy Japanese Volunteers: A Cross-Over, Randomized Study” (PLoS ONE, 2015)
Read-outs that look alike come from different tables or passages of the source.

What was measured:
[1] = Randomized crossover quantitative trial: plasma pharmacokinetics of nine ingredients after rikkunshito 2.5, 5.0 or 7.5 g; conditions: for Plasma concentration just before the administration: all subjects, quantitative trial
Description: The first trial was a nonrandomized, open-label, one-period design. The second trial was a randomized, open-label, three-arm, three-period design (Fig 1). With respect to inclusion criteria, the studies included healthy Japanese adults between 20 and 45 years of age with a body mass index between 18 and 25 who were willing and able to comply with the study requirements. Exclusion criteria for this study included a history of significant liver, heart, or vessel disease and consumption of supplements that contained any rikkunshito ingredients or any drug within 3 days to 1 week before the first dose. Other standard exclusion criteria included relevant allergies, pregnant or nursing females, and any alcohol or nicotine use. The sample size was set as more than 15 based on the Ministry of Health, Labour and Welfare’s guidelines. Subjects allocated to a screening test were randomized to one of three groups by the central allocation system (allocation ratio 1:1:1). A random sequence was generated using a computer. The safety endpoint was evaluated in all volunteers. This endpoint was defined on the basis of a physician’s judgement after examination or observation that a serious adverse event had occurred. Adverse events included death, a life-threatening event, an event requiring hospitalization for treatment or an extended stay in hospital, an event resulting in permanent or temporary disability or dysfunction, an event resulting in a congenital abnormality, or any other serious medical phenomenon. With respect to side effects, no specific conditions were defined, and all adverse events for which no causal relationship with the drug could be excluded were deemed to be side effects. In each stage during the 48-h period following rikkunshito administration, the physician monitored the patient for subjective symptoms, objective findings, swelling, body temperature (axillary), blood pressure (sitting), and pulse (sitting). The physician also conducted a hematological examination to measure the patient’s red blood cell, leucocyte and platelet counts, hemoglobin level, and hematocrit value. A biochemical examination was conducted to determine total protein, blood urea nitrogen, creatinine, uric acid, aspartate aminotransferase, alanine aminotransferase, total bilirubin, alkaline phosphatase, γ-glutamyltranspeptidase albumin, prothrombin time, total cholesterol, C-reactive protein, and potassium to identify any abnormalities in comparison with the subject’s condition prior to administration. All participants fasted for 12 h before administration and 4 h after administration of the study drug.
In the second quantitative trial, 12-mL blood samples were collected at 0 (preadministration), 0.25, 0.5, 1, 2, 3, 4, 6, 8, 10, 12, 24, and 48 h after a single oral administration of rikkunshito (Lot H05142). A total of 3 daily doses were used in this trial, i.e., the clinical dose per administration (2.5 g) as the lowest dose, the clinical daily dose (7.5 g) as the highest dose, and an intermediate dose (5.0 g), to broadly discuss the pharmacokinetic characteristics of the ingredients measured. The trial participants were hospitalized overnight on the day they ingested rikkunshito, and returned home the following day after blood samples were collected at the 24-h time point. The participants returned to the hospital to provide blood samples at 48 h. The blood was immediately centrifuged at 1700 ×g for 15 min to obtain plasma. Plasma fractions were stored at −20°C or lower until analysis.
Plasma, urine, and rikkunshito formulation samples were analyzed for rikkunshito ingredients concentrations using a liquid chromatography–mass spectrometry with tandem mass spectrometer assay (LC–MS/MS; API5000, Triple Quad 6500, or QTRAP5500; AB Sciex, Tokyo, Japan) or gas chromatography–mass spectrometry. Further information of analytical methods can be found at S1 Appendix.

[2] = Exploratory trial: amount of rikkunshito ingredients in urine; format: in vivo, human; conditions: mean ± S.D., n = 4; for Amount in urine, 0–4 h: 0–4 h after single oral rikkunshito 7.5 g; for Amount in urine, 4–8 h: 4–8 h after single oral rikkunshito 7.5 g; for Amount in urine, Pre: preadministration (between dinner and bedtime)
Method in brief: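 LC–MS/MS measurement of rikkunshito constituents in urine fractions (pre-dose, 0–4 h, 4–8 h) following one 7.5 g oral dose. Other constituents: enzymatic deglucuronidation at 37 °C for 2 h, then SPE cleanup with atractylenolide III or digoxin as IS; synephrine: erythromycin IS, Ostro plate.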

[3] = Formation of ingredients derived from rikkunshito in formulation, blood, and urine (S11 Table summary); conditions: after rikkunshito administration, per ingredient in the formulation; for Formation of ingredients: form found in Urine: BQL = below the quantification limit
ghrelin secretion = conditions: cited from earlier work
5-HT2BR = system: 5-HT2BR; parameters: method as in PMID 18439428; conditions: cited from earlier work
[4] = system: cisplatin-induced anorexia model; conditions: cited from earlier work
[5] = human, plasma, po, 2.5 g, AUC0-last, rikkunshito 2.5 g single oral, n = 21, geometric mean (95% CI)
[6] = human, plasma, po, 2.5 g, C max, rikkunshito 2.5 g single oral, n = 21, geometric mean (95% CI)
[7] = human, plasma, po, 2.5 g, Median t max (range), rikkunshito 2.5 g single oral, n = 21, median (minimum–maximum)
[8] = human, plasma, po, 5 g, AUC0-last, rikkunshito 5.0 g single oral, n = 19, geometric mean (95% CI)
[9] = human, plasma, po, 5 g, C max, rikkunshito 5.0 g single oral, n = 19, geometric mean (95% CI)
[10] = human, plasma, po, 5 g, Median t max (range), rikkunshito 5.0 g single oral, n = 19, median (minimum–maximum)
[11] = human, plasma, po, 5 g, t 1/2, rikkunshito 5.0 g single oral, n = 19, geometric mean (95% CI)
[12] = human, plasma, po, 7.5 g, AUC0-last, rikkunshito 7.5 g single oral, n = 19, geometric mean (95% CI)
[13] = human, plasma, po, 7.5 g, C max, rikkunshito 7.5 g single oral, n = 19, geometric mean (95% CI)
[14] = human, plasma, po, 7.5 g, t 1/2, rikkunshito 7.5 g single oral, n = 19, geometric mean (95% CI)
[15] = rikkunshito 7.5 g single oral, n = 19, geometric mean (95% CI)
[16] = rikkunshito 7.5 g single oral, n = 19, median (minimum–maximum)
[17] = oral administration at a dose of 4.0 mg/kg

Compound	AUC(0-t) [1, 5] [ng·h/mL]	Cmax [1, 6] [ng/mL]	Tmax [1, 7] [h]	AUC(0-t) [1, 8] [ng·h/mL]	Cmax [1, 9] [ng/mL]	Tmax [1, 10] [h]	half-life [1, 11] [h]	AUC(0-t) [1, 12] [ng·h/mL]	Cmax [1, 13] [ng/mL]	half-life [1, 14] [h]	t 1/2 [1, 15]	Median t max (range) [1, 16]	Amount in urine, 0–4 h [2]	Amount in urine, 4–8 h [2]	Amount in urine, Pre [2]	Formation of ingredients: form found in Urine [3]	Plasma concentration just before the administration [1]	5-HT2BR inhibitory/antagonistic activity (5-HT2BR)	Formation of ingredients: form found in Blood [3]	further results
CC1(C)[C@@H](O)CC[C@]2(C)[C@H]3C(=O)C=C4[C@@H]5C[C@@](C)(C(=O)O)CC[C@]5(C)CC[C@@]4(C)[C@]3(C)CC[C@@H]12 [18β-Glycyrrhetinic acid]	292	23	8	638	44.2	8	8.94	832	55.6	> 10	11.7 (8.90–15.3) h	8.00 (5.98–23.7) h								Tmax ([1]; human, plasma, oral, t max, after rikkunshito administration, dose not given): 8 h; Median t max (range) ([1]; rikkunshito 7.5 g single oral, n = 19, median (minimum–maximum), listed as 18β-glycyrrhetinic acid): exceeding 3 h
C/C=C/C#CC#C/C=C/c1ccco1 [Atractylodin]											0.888 (0.687–1.15) h	0.500 (0.250–1.00) h	75.8 ± 152 ng	BQL	BQL	Atractylodin	BQL			AUC(0-t) ([1]; human, in vivo, po, 2.5 g): 0.318 ng·h/mL; Cmax ([1]; human, in vivo, po, 2.5 g): 0.531 ng/mL; Tmax ([1]; human, in vivo, po, 2.5 g, Median t max (range), rikkunshito 2.5 g single oral, n = 21, median (minimum–maximum)): 0.5 h; AUC(0-t) ([1]; human, in vivo, po, 5 g): 1.06 ng·h/mL; Cmax ([1]; human, in vivo, po, 5 g): 1.02 ng/mL; Tmax ([1]; human, in vivo, po, 5 g, Median t max (range), rikkunshito 5.0 g single oral, n = 19, median (minimum–maximum)): 0.5 h; half-life ([1]; human, in vivo, po, 5 g, t 1/2, rikkunshito 5.0 g single oral, n = 19, geometric mean (95% CI)): 0.746 h; AUC(0-t) ([1]; human, in vivo, po, 7.5 g): 1.76 ng·h/mL; Cmax ([1]; human, in vivo, po, 7.5 g): 1.57 ng/mL; Tmax ([1]; human, in vivo, po, 7.5 g, Median t max (range), rikkunshito 7.5 g single oral, n = 19, median (minimum–maximum)): ≤ 1 h
O=C(/C=C/c1ccc(O)cc1)c1ccc(O)cc1O [Isoliquiritigenin]	0.0307	0.0205	0.25	0.0766	0.0321	0.25	4.12	0.122	~0.0428		3.26 (1.69–6.31) h	0.250 (0.250–4.00) h	741 ± 393 ng	1010 ± 451 ng	0.688 ± 1.38 ng			inhibits		Known pharmacology activities: ghrelin secretion (ghrelin secretion): Ghrelin secretion promoting activity [14, 15]; 5-HT2BR inhibitory/antagonistic activity (5-HT2BR; listed as isoliquiritigenin): inhibit; Appetite following cisplatin administration [4, 17]: improves decreased appetite; Plasma ghrelin concentration following cisplatin administration [4, 17]: inhibits a decrease in plasma ghrelin concentration; Acylated ghrelin level in blood ([4]; oral administration, cisplatin-induced anorexia model): suppressed the decrease of the acylated ghrelin level in blood in a concentration-dependent manner; C max [1, 15]: 42.8 (30.4–60.3) pg/mL; t 1/2 ([1]; rikkunshito 7.5 g single oral, n = 19, geometric mean (95% CI), listed as isoliquiritigenin): < 10 h; Median t max (range) ([1]; rikkunshito 7.5 g single oral, n = 19, median (minimum–maximum), listed as isoliquiritigenin): ≤ 1 h
O=C1C[C@@H](c2ccc(O)cc2)Oc2cc(O)cc(O)c21 [Naringenin]	1.65	0.376	5.83	3.32	0.878	4	4.46	4.63	1.15	< 10	5.38 (3.31–8.76) h	4.00 (2.00–6.00) h	BQL	2380 ± 2940 ng	BQL	Naringenin		most potent 5-HT2BR antagonistic activity among all rikkunshito ingredients	Naringenin Conjugate metabolites of naringenin^a	Amount in urine, 4–8 h ([2]; listed as naringenin): 2,380 ng; Tmax ([1]; human, plasma, po, 7.5 g, Median t max (range), rikkunshito 7.5 g single oral, n = 19, median (minimum–maximum)): > 3 h
COc1ccc(-c2cc(=O)c3c(OC)c(OC)c(OC)c(OC)c3o2)cc1OC [Nobiletin]																BQL		most potent 5-HT2BR antagonistic activity among all rikkunshito ingredients	Nobiletin	t max values ([1]; human, in vivo): 15 min-1 h
C=C(CC[C@@H](C(=O)O)[C@H]1[C@H](O)C[C@@]2(C)C3=C(CC[C@]12C)[C@@]1(C)CC[C@H](OC(C)=O)C(C)(C)[C@@H]1CC3)C(C)C [Pachymic acid]											20.5 (14.4–29.2) h	6.00 (2.00–11.5) h				BQL	BQL		Pachymic acid	AUC(0-t) ([1]; human, in vivo, po, AUC0-last, rikkunshito 2.5 g single oral, n = 21, geometric mean (95% CI)): 0.277 ng·h/mL; AUC(0-t) ([1]; human, in vivo, po, AUC0-last, rikkunshito 5.0 g single oral, n = 19, geometric mean (95% CI)): 0.716 ng·h/mL; AUC(0-t) ([1]; human, in vivo, po, AUC0-last, rikkunshito 7.5 g single oral, n = 19, geometric mean (95% CI)): 1.21 ng·h/mL; Cmax ([1]; human, in vivo, po, C max, rikkunshito 2.5 g single oral, n = 21, geometric mean (95% CI)): 0.0363 ng/mL; Cmax ([1]; human, in vivo, po, C max, rikkunshito 5.0 g single oral, n = 19, geometric mean (95% CI)): 0.0612 ng/mL; Cmax ([1]; human, in vivo, po, C max, rikkunshito 7.5 g single oral, n = 19, geometric mean (95% CI)): 0.091 ng/mL; Tmax ([1]; human, in vivo, po, Median t max (range), rikkunshito 2.5 g single oral, n = 21, median (minimum–maximum)): 6 h; Tmax ([1]; human, in vivo, po, Median t max (range), rikkunshito 5.0 g single oral, n = 19, median (minimum–maximum)): 6 h; Tmax ([1]; human, in vivo, po, Median t max (range), rikkunshito 7.5 g single oral, n = 19, median (minimum–maximum)): > 3 h; half-life ([1]; human, in vivo, po, t 1/2, rikkunshito 5.0 g single oral, n = 19, geometric mean (95% CI)): 16.2 h; Tmax ([1]; human, in vivo, t max, after rikkunshito administration, dose not given): 6 h; t 1/2 ([1]; rikkunshito 7.5 g single oral, n = 19, geometric mean (95% CI), listed as pachymic acid): exceeding 10 h
